Experimental data published in US20220151236A1, “NOVEL OXADIAZOLE COMPOUNDS FOR CONTROLLING OR PREVENTING PHYTOPATHOGENIC FUNGI” (PI INDUSTRIES LTD., priority 2019, published 2022).

tested on: Phakopsora pachyrhizi; experiment: Phakopsora pachyrhizi Test on Soybean (preventive activity, greenhouse); assay type: in vivo; details: preventive spray on young Soybean plants, inoculated one day after treatment, rated 3, 7, 10 and 15 days after application, read-out: Efficacy (% control), disease severity compared to the untreated check
Procedure: Compounds were dissolved in 2% dimethyl sulfoxide/acetone and then mixed with water containing an emulsifier to a calibrated spray volume of 50 mL. This 50 mL spray solution was poured into spray bottles for further applications. To test the preventive activity of compounds, healthy young Soybean plants raised in the greenhouse were sprayed with the active compound preparation at the stated application rates inside the spray cabinets using hollow cone nozzles. One day after treatment, the plants were inoculated with a spore suspension containing 2×10^5 Phakopsora pachyrhizi conidia. The inoculated plants were then kept in a greenhouse chamber at 22-24° C. temperature and 80-90% relative humidity for disease expression. A visual assessment of the compound's performance was carried out by rating the disease severity (0-100% scale) on treated plants 3, 7, 10 and 15 days after application. Efficacy (% control) of the compounds was calculated by comparing the disease rating in the treatment with the one of the untreated control. The sprayed plants were also assessed for plant compatibility by recording symptoms like necrosis, chlorosis and stunting.

Question: For `CNC(=O)c1cn2ccc(-c3noc(C(F)(F)F)n3)cc2n1` [Compound 13, N-methyl-7-(5-(trifluoromethyl)-1,2,4-oxadiazol-3-yl)imidazo[1,2-a]pyridine-2-carboxamide], which pest or weed control at 500 ppm is on record?
Answer: The pest or weed control at 500 ppm was at least 70%.

Question: Which pest or weed control at 500 ppm does the source give for `O=C(Nc1ccncc1)c1cn2ccc(-c3noc(C(F)(F)F)n3)cc2n1` [Compound 11, N-(pyridin-4-yl)-7-(5-(trifluoromethyl)-1,2,4-oxadiazol-3-yl)imidazo[1,2-a]pyridine-2-carboxamide] here?
Answer: Its pest or weed control at 500 ppm is at least 70%.

Question: How did the pest or weed control at 500 ppm turn out when `O=C(Nc1cccnc1)c1cn2ccc(-c3noc(C(F)(F)F)n3)cc2n1` [Compound 9, N-(pyridin-3-yl)-7-(5-(trifluoromethyl)-1,2,4-oxadiazol-3-yl)imidazo[1,2-a]pyridine-2-carboxamide] was run?
Answer: Its pest or weed control at 500 ppm is at least 70%.

Question: How did the pest or weed control at 500 ppm turn out when `Fc1ccc(SCc2cn3ccc(-c4noc(C(F)(F)F)n4)cc3n2)cc1` [Compound 48, 3-(2-(((4-fluorophenyl)thio)methyl)imidazo[1,2-a]pyridin-7-yl)-5-(trifluoromethyl)-1,2,4-oxadiazole] was run?
Answer: Its pest or weed control at 500 ppm is at least 70%.

Question: How did the pest or weed control at 500 ppm turn out when `O=C(NCc1cccc(Cl)c1)c1cn2ccc(-c3noc(C(F)(F)F)n3)cc2n1` [Compound 40, N-(3-chlorobenzyl)-7-(5-(trifluoromethyl)-1,2,4-oxadiazol-3-yl)imidazo[1,2-a]pyridine-2-carboxamide] was run?
Answer: Its pest or weed control at 500 ppm is at least 70%.

Question: For `COc1cccc(CNC(=O)c2cn3ccc(-c4noc(C(F)(F)F)n4)cc3n2)c1` [Compound 41, N-(3-methoxybenzyl)-7-(5-(trifluoromethyl)-1,2,4-oxadiazol-3-yl)imidazo[1,2-a]pyridine-2-carboxamide], which pest or weed control at 500 ppm is on record?
Answer: Its pest or weed control at 500 ppm is at least 70%.

Question: Which pest or weed control at 500 ppm does the source give for `Fc1ccccc1SCc1cn2cc(-c3noc(C(F)(F)F)n3)ccc2n1` [Compound 106, 3-(2-(((2-fluorophenyl)thio)methyl)imidazo[1,2-a]pyridin-6-yl)-5-(trifluoromethyl)-1,2,4-oxadiazole] here?
Answer: Its pest or weed control at 500 ppm is at least 70%.

Question: How did the pest or weed control at 500 ppm turn out when `CN(Cc1ccccc1)C(=O)c1cn2cc(-c3noc(C(F)(F)F)n3)ccc2n1` [Compound 71, N-benzyl-N-methyl-6-(5-(trifluoromethyl)-1,2,4-oxadiazol-3-yl)imidazo[1,2-a]pyridine-2-carboxamide] was run?
Answer: Its pest or weed control at 500 ppm is at least 70%.

Question: Which pest or weed control at 500 ppm does the source give for `O=C(Nc1cccnc1)c1cn2cc(-c3noc(C(F)(F)F)n3)ccc2n1` [Compound 29, N-(pyridin-3-yl)-6-(5-(trifluoromethyl)-1,2,4-oxadiazol-3-yl)imidazo[1,2-a]pyridine-2-carboxamide] here?
Answer: The pest or weed control at 500 ppm was at least 70%.

Question: For `O=C(NCc1cn2cc(-c3noc(C(F)(F)F)n3)ccc2n1)c1ccc(Cl)cc1` [Compound 83, 4-chloro-N-((6-(5-(trifluoromethyl)-1,2,4-oxadiazol-3-yl)imidazo[1,2-a]pyridin-2-yl)methyl)benzamide], which pest or weed control at 500 ppm is on record?
Answer: The pest or weed control at 500 ppm was at least 70%.

Question: `O=C(NCc1cn2cc(-c3noc(C(F)(F)F)n3)ccc2n1)c1ccncc1` [Compound 99, N-((6-(5-(trifluoromethyl)-1,2,4-oxadiazol-3-yl)imidazo[1,2-a]pyridin-2-yl)methyl)isonicotinamide] was tested. Which pest or weed control at 500 ppm did it give?
Answer: Its pest or weed control at 500 ppm is at least 70%.

Question: Which pest or weed control at 500 ppm does the source give for `COc1cccc(NC(=O)c2cn3ccc(-c4noc(C(F)(F)F)n4)cc3n2)c1` [Compound 1, N-(3-methoxyphenyl)-7-(5-(trifluoromethyl)-1,2,4-oxadiazol-3-yl)imidazo[1,2-a]pyridine-2-carboxamide] here?
Answer: The pest or weed control at 500 ppm was at least 70%.

Question: Which pest or weed control at 500 ppm does the source give for `O=C(NCc1ccc(Cl)cc1)c1cn2cc(-c3noc(C(F)(F)F)n3)ccc2n1` [Compound 77, N-(4-chlorobenzyl)-6-(5-(trifluoromethyl)-1,2,4-oxadiazol-3-yl)imidazo[1,2-a]pyridine-2-carboxamide] here?
Answer: The pest or weed control at 500 ppm was at least 70%.

Question: How did the pest or weed control at 500 ppm turn out when `CC(C)CNC(=O)c1cn2cc(-c3noc(C(F)(F)F)n3)ccc2n1` [Compound 66, N-isobutyl-6-(5-(trifluoromethyl)-1,2,4-oxadiazol-3-yl)imidazo[1,2-a]pyridine-2-carboxamide] was run?
Answer: The pest or weed control at 500 ppm was at least 70%.

Question: With `O=S(=O)(Cc1cn2cc(-c3noc(C(F)(F)F)n3)ccc2n1)c1cccc(F)c1` [Compound 120, 3-(2-(((3-fluorophenyl)sulfonyl)methyl)imidazo[1,2-a]pyridin-6-yl)-5-(trifluoromethyl)-1,2,4-oxadiazole] as the compound, how does the pest or weed control at 500 ppm read?
Answer: The pest or weed control at 500 ppm was at least 70%.

Question: With `CN(C)c1ccc(CNC(=O)c2cn3ccc(-c4noc(C(F)(F)F)n4)cc3n2)cc1` [Compound 43, N-(4-(dimethylamino)benzyl)-7-(5-(trifluoromethyl)-1,2,4-oxadiazol-3-yl)imidazo[1,2-a]pyridine-2-carboxamide] as the compound, how does the pest or weed control at 500 ppm read?
Answer: Its pest or weed control at 500 ppm is at least 70%.

Question: How did the pest or weed control at 500 ppm turn out when `CCC(=O)NCc1cn2cc(-c3noc(C(F)(F)F)n3)ccc2n1` [Compound 88, N-((6-(5-(trifluoromethyl)-1,2,4-oxadiazol-3-yl)imidazo[1,2-a]pyridin-2-yl)methyl)propionamide] was run?
Answer: The pest or weed control at 500 ppm was at least 70%.

Question: Which pest or weed control at 500 ppm does the source give for `CCCSCc1cn2cc(-c3noc(C(F)(F)F)n3)ccc2n1` [Compound 107, 3-(2-((propylthio)methyl)imidazo[1,2-a]pyridin-6-yl)-5-(trifluoromethyl)-1,2,4-oxadiazole] here?
Answer: The pest or weed control at 500 ppm was at least 70%.

Question: Which pest or weed control at 500 ppm does the source give for `Cc1ccc(NC(=O)c2cn3cc(-c4noc(C(F)(F)F)n4)ccc3n2)cc1` [Compound 19, N-(p-tolyl)-6-(5-(trifluoromethyl)-1,2,4-oxadiazol-3-yl)imidazo[1,2-a]pyridine-2-carboxamide] here?
Answer: The pest or weed control at 500 ppm was at least 70%.

Question: With `COc1ccc(S(=N)(=O)Cc2cn3ccc(-c4noc(C(F)(F)F)n4)cc3n2)cc1` (stereo not shown) [Compound 165, imino(4-methoxyphenyl)((7-(5-(trifluoromethyl)-1,2,4-oxadiazol-3-yl)imidazo[1,2-a]pyridin-2-yl)methyl)-λ^6-sulfanone] as the compound, how does the pest or weed control at 500 ppm read?
Answer: Its pest or weed control at 500 ppm is at least 70%.

Question: How did the pest or weed control at 500 ppm turn out when `O=C(NCc1ccccc1F)c1cn2ccc(-c3noc(C(F)(F)F)n3)cc2n1` [Compound 42, N-(2-fluorobenzyl)-7-(5-(trifluoromethyl)-1,2,4-oxadiazol-3-yl)imidazo[1,2-a]pyridine-2-carboxamide] was run?
Answer: The pest or weed control at 500 ppm was at least 70%.

Question: For `O=C(c1cn2cc(-c3noc(C(F)(F)F)n3)ccc2n1)N1CCOCC1` [Compound 64, morpholino(6-(5-(trifluoromethyl)-1,2,4-oxadiazol-3-yl)imidazo[1,2-a]pyridin-2-yl)methanone], which pest or weed control at 500 ppm is on record?
Answer: The pest or weed control at 500 ppm was at least 70%.

Question: `N#Cc1ccc(NC(=O)c2cn3ccc(-c4noc(C(F)(F)F)n4)cc3n2)cc1` [Compound 15, N-(4-cyanophenyl)-7-(5-(trifluoromethyl)-1,2,4-oxadiazol-3-yl)imidazo[1,2-a]pyridine-2-carboxamide] was tested. Which pest or weed control at 500 ppm did it give?
Answer: Its pest or weed control at 500 ppm is at least 70%.

Question: With `O=C(NCc1ccccc1)c1cn2cc(-c3noc(C(F)(F)F)n3)ccc2n1` [Compound 23, N-benzyl-6-(5-(trifluoromethyl)-1,2,4-oxadiazol-3-yl)imidazo[1,2-a]pyridine-2-carboxamide] as the compound, how does the pest or weed control at 500 ppm read?
Answer: The pest or weed control at 500 ppm was at least 70%.

Question: `O=C(Nc1ccncc1)c1cn2cc(-c3noc(C(F)(F)F)n3)ccc2n1` [Compound 32, N-(pyridin-4-yl)-6-(5-(trifluoromethyl)-1,2,4-oxadiazol-3-yl)imidazo[1,2-a]pyridine-2-carboxamide] was tested. Which pest or weed control at 500 ppm did it give?
Answer: Its pest or weed control at 500 ppm is at least 70%.

Question: Which pest or weed control at 500 ppm does the source give for `Cc1ccc(NC(=O)c2cn3ccc(-c4noc(C(F)(F)F)n4)cc3n2)cc1` [Compound 3, N-(p-tolyl)-7-(5-(trifluoromethyl)-1,2,4-oxadiazol-3-yl)imidazo[1,2-a]pyridine-2-carboxamide] here?
Answer: The pest or weed control at 500 ppm was at least 70%.

Question: With `O=C(Nc1ccc(Cl)cc1)c1cn2ccc(-c3noc(C(F)(F)F)n3)cc2n1` [Compound 6, N-(4-chlorophenyl)-7-(5-(trifluoromethyl)-1,2,4-oxadiazol-3-yl)imidazo[1,2-a]pyridine-2-carboxamide] as the compound, how does the pest or weed control at 500 ppm read?
Answer: Its pest or weed control at 500 ppm is at least 70%.

Question: How did the pest or weed control at 500 ppm turn out when `O=C(NCc1ccc(Cl)c(Cl)c1)c1cn2ccc(-c3noc(C(F)(F)F)n3)cc2n1` [Compound 44, N-(3,4-dichlorobenzyl)-7-(5-(trifluoromethyl)-1,2,4-oxadiazol-3-yl)imidazo[1,2-a]pyridine-2-carboxamide] was run?
Answer: Its pest or weed control at 500 ppm is at least 70%.

Question: For `O=C(NCc1ccc(C(F)(F)F)cc1)c1cn2ccc(-c3noc(C(F)(F)F)n3)cc2n1` [Compound 8, 7-(5-(trifluoromethyl)-1,2,4-oxadiazol-3-yl)-N-(4-(trifluoromethyl)benzyl)imidazo[1,2-a]pyridine-2-carboxamide], which pest or weed control at 500 ppm is on record?
Answer: The pest or weed control at 500 ppm was at least 70%.

Question: How did the pest or weed control at 500 ppm turn out when `Fc1cccc(SCc2cn3cc(-c4noc(C(F)(F)F)n4)ccc3n2)c1` [Compound 104, 3-(2-(((3-fluorophenyl)thio)methyl)imidazo[1,2-a]pyridin-6-yl)-5-(trifluoromethyl)-1,2,4-oxadiazole] was run?
Answer: The pest or weed control at 500 ppm was at least 70%.

Question: How did the pest or weed control at 500 ppm turn out when `O=S(=O)(Cc1cn2cc(-c3noc(C(F)(F)F)n3)ccc2n1)c1ccc(F)cc1` [Compound 121, 3-(2-(((4-fluorophenyl)sulfonyl)methyl)imidazo[1,2-a]pyridin-6-yl)-5-(trifluoromethyl)-1,2,4-oxadiazole] was run?
Answer: The pest or weed control at 500 ppm was at least 70%.

Question: How did the pest or weed control at 500 ppm turn out when `CNC(=O)c1cn2cc(-c3noc(C(F)(F)F)n3)ccc2n1` [Compound 21, N-methyl-6-(5-(trifluoromethyl)-1,2,4-oxadiazol-3-yl)imidazo[1,2-a]pyridine-2-carboxamide] was run?
Answer: The pest or weed control at 500 ppm was at least 70%.

Question: Which pest or weed control at 500 ppm does the source give for `O=C(Nc1ccc(F)cc1F)c1cn2cc(-c3noc(C(F)(F)F)n3)ccc2n1` [Compound 17, N-(2,4-difluorophenyl)-6-(5-(trifluoromethyl)-1,2,4-oxadiazol-3-yl)imidazo[1,2-a]pyridine-2-carboxamide] here?
Answer: The pest or weed control at 500 ppm was at least 70%.

Question: For `[O-][S+](Cc1cn2cc(-c3noc(C(F)(F)F)n3)ccc2n1)c1ccc(Cl)c(Cl)c1` (stereo not shown) [Compound 126, 3-(2-(((3,4-dichlorophenyl)sulfinyl)methyl)imidazo[1,2-a]pyridin-6-yl)-5-(trifluoromethyl)-1,2,4-oxadiazole], which pest or weed control at 500 ppm is on record?
Answer: Its pest or weed control at 500 ppm is at least 70%.
